Measured values taken from patent publication US20230364084A1, “METHODS FOR PREVENTING OR TREATING CONDITIONS RELATED TO PIKFYVE ACTIVITY” (The Regents of the University of Michigan, priority 2020, published 2023).

Columns and labels:
[1] = tested on: DU145 prostate cancer cells; experiment: cell viability screen with a 167-compound tyrosine kinase inhibitor library; type: cell-based, human
Method: FIG. 1: ESK981 inhibits the growth of diverse preclinical models of prostate cancer and is associated with a unique vacuolization morphology. • (a) The percentage viabilities of DU145 cells treated with 300 nM ESK981 or 167 other tyrosine kinase inhibitors when compared to a vehicle control. The top five most inhibitory compounds, as well as cabozantinib and crizotinib (highlighted in orange), and their respective targets are listed in the table. ESK981 is highlighted in red. • (b) Morphological differences of nuclear-restricted RFP-expressing DU145 cells treated with 300 nM ESK981, crizotinib, or cabozantinib. • (c) A long-term survival assay was used to calculate the half-maximum inhibitory concentration (IC50) after two weeks of incubation with the serial dilutions of indicated drugs. (Top) Long-term survival assays of VCaP prostate cancer cells exposed to MTKIs. (Bottom) IC50 of ESK981, crizotinib, and cabozantinib in a panel of prostate cancer cell lines. • (d) ESK981 was effective against enzalutamide (Enza)-resistant cell lines. […] Long-term survival (two weeks) was assayed by absorbance of crystal violet at OD590. • (e) VCaP-RFP cells were cultured for three days in ultralow attachment plates to form 3D tumor spheroids prior to the indicated drug treatments. […] Fluorescence intensity of 3D spheroids was measured by IncuCyte ZOOM. • (f) Castration-resistant VCaP tumors were established subcutaneously in castrated SCID mice, and mice were randomized into three groups, which received vehicle, 30 mg/kg, or 60 mg/kg ESK981 by oral gavage once per day for the indicated dosing schedule. Tumor volumes were monitored by a digital caliper twice per week. Data were analyzed by unpaired t test and presented as mean±SEM. *p<0.05; **p<0.01. • (g) AR^+ prostate patient-derived xenograft (PDX) MDA-PCa-146-12 were implanted subcutaneously in non-castrated SCID mice, and mice were randomized into two groups receiving either once daily vehicle or 30 mg/kg ESK981 for five days each week. […] Tumor volumes were monitored twice per week. […]

[2] = tested on: castration-resistant VCaP tumors; experiment: castration-resistant VCaP xenograft mouse model; type: in vivo; details: 30 or 60 mg/kg
Method: Four- to six-week old male CB17 severe combined immunodeficiency (SCID) mice were procured from the University of Michigan breeding colony. Subcutaneous tumors were established at both sides of the dorsal flank of mice. Tumors were measured at least biweekly using digital calipers following the formula (π/6) (L×W2), where L=length and W=width of the tumor. At the end of the studies, mice were sacrificed and tumors extracted and weighed. The University of Michigan University Committee on the Use and Care of Animals (UCUCA) approved all in vivo studies. For the VCaP castration-resistant tumor model, 3×10^6 VCaP cells were injected subcutaneously into the dorsal flank on both sides of the mice in serum-free medium with 50% Matrigel (BD Biosciences). Once tumors reached a palpable stage (˜200 mm^3), tumor-bearing mice were castrated. Once tumors grew back to the pre-castration size, mice were randomized and treated with either 30 mg/kg, 60 mg/kg ESK981, or vehicle (ORA-PLUS) by oral gavage 5 days per week. For the DU145 xenograft tumor model, 1×10^6 DU145 cells were injected subcutaneously into the dorsal flank on both sides of the mice in serum-free medium with 50% Matrigel. When tumors reached ˜100 mm^3, tumor-bearing mice were randomized and treated with 30 mg/kg ESK981 or vehicle (ORA-PLUS) by oral gavage 5 days per week.

## CC(C)Cn1c2ccc(Nc3ncccn3)cc2c2c3c(c4c(c21)CCc1nn(C)cc1-4)C(=O)NC3 [ESK981, 13-isobutyl-4-methyl-10-(pyrimidin-2-ylamino)-1,2,4,7,8,13-hexahydro-6H-indazolo[5,4-a]pyrrolo[3,4-c]carbazol-6-one]
[1]; 300 nM
  growth inhibition (cell viability): potent growth inhibition
[1]; among the 167 compounds tested
  cytoplasmic vacuolization morphology: uniquely triggered a cytoplasmic vacuolization morphology
[2]; five days of treatment
  cell proliferation by Ki67 IHC: dose-dependent reductions
[2]; oral gavage
  tumor weights: dose-dependent reductions
[2]; oral gavage, castrated SCID mice, vs vehicle
  tumor growth of VCaP xenografts: significant dose-dependent growth inhibiton
